Results reported in patent publication US6617340B1, “N-(substituted glycyl)-pyrrolidines, pharmaceutical compositions containing them and their use in inhibiting dipeptidyl peptidase-IV” (Novartis AG, priority 1999, dated 2003).

Columns and labels:
[1] = molecular target: T1, DPP-IV activity from human colonic carcinoma cell extracts (Caco-2) (Homo sapiens, UniProt P27487); assay: Caco-2 DPP-IV Assay; format: biochemical; details: Caco-2 cell extract, substrate H-Alanine-Proline-pNA
T1 construct: Cell extract is prepared from cells solubilized in 10 mM Tris-HCl, 0.15 M NaCl, 0.04 t.i.u. aprotinin, 0.5% nonidet-P40; host or cells: Caco-2 (differentiated), NP-40 solubilized extract
T1 sequence (P27487 whole entry): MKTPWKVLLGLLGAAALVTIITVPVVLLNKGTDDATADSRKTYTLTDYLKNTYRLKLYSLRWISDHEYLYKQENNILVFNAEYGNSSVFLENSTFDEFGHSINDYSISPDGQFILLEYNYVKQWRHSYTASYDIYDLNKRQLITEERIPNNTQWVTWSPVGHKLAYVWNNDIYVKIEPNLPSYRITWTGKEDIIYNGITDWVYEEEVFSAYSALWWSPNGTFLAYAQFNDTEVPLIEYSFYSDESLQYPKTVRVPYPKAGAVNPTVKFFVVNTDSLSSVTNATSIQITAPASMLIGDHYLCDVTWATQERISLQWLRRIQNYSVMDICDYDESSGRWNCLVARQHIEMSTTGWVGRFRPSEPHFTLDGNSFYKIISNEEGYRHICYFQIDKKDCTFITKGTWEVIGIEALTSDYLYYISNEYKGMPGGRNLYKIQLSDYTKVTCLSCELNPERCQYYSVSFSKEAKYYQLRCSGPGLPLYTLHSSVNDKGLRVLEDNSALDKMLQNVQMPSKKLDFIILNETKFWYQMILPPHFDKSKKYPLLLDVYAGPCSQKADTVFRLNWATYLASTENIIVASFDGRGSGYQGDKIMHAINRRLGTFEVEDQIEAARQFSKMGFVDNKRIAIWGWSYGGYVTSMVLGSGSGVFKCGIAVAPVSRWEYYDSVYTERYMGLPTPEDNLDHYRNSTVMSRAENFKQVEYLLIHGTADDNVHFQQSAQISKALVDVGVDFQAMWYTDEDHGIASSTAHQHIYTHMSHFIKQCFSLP
Description: The human colonic carcinoma cell line Caco-2 was obtained from the American Type Culture Collection (ATCC HTB 37). Differentiation of the cells to induce DPP-IV expression was accomplished as described by Reisher, et al. in an article entitled “Increased expression of . . . intestinal cell line Caco-2” in Proc. Natl. Acad. Sci., Vol. 90, pgs. […] Cell extract is prepared from cells solubilized in 10 mM Tris-HCl, 0.15 M NaCl, 0.04 t.i.u. aprotinin, 0.5% nonidet-P40, pH 8.0, which is centrifuged at 35,000 g for 30 min. at 4° C. to remove cell debris. The assay is conducted by adding 20 μg solubilized Caco-2 protein, diluted to a final volume of 125 μl in assay buffer (25 mM Tris-HCl pH 7.4, 140 mM NaCl, 10 mM KCl, 1% bovine serum albumin) to microtiter plate wells. The reaction is initiated by adding 25 μl of 1 mM substrate (H-Alanine-Proline-pNA; pNA is p-nitroaniline). The reaction is run at room temperature for 10 minutes after which time a 19 μl volume of 25% glacial acetic acid is added to stop the reaction. […] A standard curve of free p-nitroaniline is generated using 0-500 μM solutions of free pNA in assay buffer. The curve generated is linear and is used for interpolation of substrate consumption (catalytic activity in nmoles substrate cleaved/min). […] The potency of the test compounds as DPP-IV inhibitors, expressed as IC50, is calculated from 8-point, dose-response curves using a 4-parameter logistic function.

[2] = molecular target: T2, DPP-IV activity in human plasma (Homo sapiens, UniProt P27487); assay: human plasma DPP-IV assay; format: biochemical; details: substrate H-Glycine-Proline-AMC
T2 construct: from tissue; host or cells: human plasma
T2 sequence (P27487 39-766 limits assumed): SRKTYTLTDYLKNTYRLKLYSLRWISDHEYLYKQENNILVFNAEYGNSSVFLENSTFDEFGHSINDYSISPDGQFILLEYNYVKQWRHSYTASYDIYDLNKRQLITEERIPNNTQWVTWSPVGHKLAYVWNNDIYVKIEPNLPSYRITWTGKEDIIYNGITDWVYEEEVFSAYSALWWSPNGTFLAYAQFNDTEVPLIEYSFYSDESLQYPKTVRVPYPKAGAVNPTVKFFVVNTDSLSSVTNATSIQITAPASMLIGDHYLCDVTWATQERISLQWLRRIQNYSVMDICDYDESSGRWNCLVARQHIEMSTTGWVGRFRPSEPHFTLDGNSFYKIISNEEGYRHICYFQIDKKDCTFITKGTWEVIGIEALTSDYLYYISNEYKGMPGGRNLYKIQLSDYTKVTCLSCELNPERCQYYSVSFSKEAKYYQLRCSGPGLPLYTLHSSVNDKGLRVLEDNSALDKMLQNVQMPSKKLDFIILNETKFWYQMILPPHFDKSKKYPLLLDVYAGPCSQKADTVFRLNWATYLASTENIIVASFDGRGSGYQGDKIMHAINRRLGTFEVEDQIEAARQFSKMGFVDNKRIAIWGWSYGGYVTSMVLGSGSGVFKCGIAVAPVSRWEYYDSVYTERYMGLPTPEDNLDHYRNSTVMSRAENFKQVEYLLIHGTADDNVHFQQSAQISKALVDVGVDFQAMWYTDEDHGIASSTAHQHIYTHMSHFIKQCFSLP
Description: (§1) Briefly, five μl of plasma are added to 96-well flat-bottom mictotiter plates (Falcon), followed by the addition of 5 μl of 80 mM MgCl2 in incubation buffer (25 mM HEPES, 140 mM NaCl, 1% RIA-grade BSA, pH 7.8). After a 5 min. incubation at room temperature, the reaction is initiated by the addition of 10 μl of incubation buffer containing 0.1 mM substrate (H-Glycine-Proline-AMC; AMC is 7-amino-4-methylcoumarin). The plates are covered with aluminum foil (or kept in the dark) and incubated at room temperature for 20 min. […] A fluorescence-concentration curve of free AMC is generated using 0-50 μM solutions of AMC in assay buffer. The curve generated is linear and is used for interpolation of substrate consumption (catalytic activity in nmoles substrate cleaved/min). As with the previous assay, the potency of the test compounds as DPP-IV inhibitors, expressed as IC50, is calculated from 8-point, dose-response curves using a 4 parameter logistic function.

[3] = molecular target: T3, DPP-IV activity in rat plasma (Rattus norvegicus, UniProt P14740); assay: rat plasma DPP-IV assay; format: biochemical; details: substrate H-Glycine-Proline-AMC
T3 construct: from tissue; host or cells: rat plasma
T3 sequence (P14740 37-767 limits assumed): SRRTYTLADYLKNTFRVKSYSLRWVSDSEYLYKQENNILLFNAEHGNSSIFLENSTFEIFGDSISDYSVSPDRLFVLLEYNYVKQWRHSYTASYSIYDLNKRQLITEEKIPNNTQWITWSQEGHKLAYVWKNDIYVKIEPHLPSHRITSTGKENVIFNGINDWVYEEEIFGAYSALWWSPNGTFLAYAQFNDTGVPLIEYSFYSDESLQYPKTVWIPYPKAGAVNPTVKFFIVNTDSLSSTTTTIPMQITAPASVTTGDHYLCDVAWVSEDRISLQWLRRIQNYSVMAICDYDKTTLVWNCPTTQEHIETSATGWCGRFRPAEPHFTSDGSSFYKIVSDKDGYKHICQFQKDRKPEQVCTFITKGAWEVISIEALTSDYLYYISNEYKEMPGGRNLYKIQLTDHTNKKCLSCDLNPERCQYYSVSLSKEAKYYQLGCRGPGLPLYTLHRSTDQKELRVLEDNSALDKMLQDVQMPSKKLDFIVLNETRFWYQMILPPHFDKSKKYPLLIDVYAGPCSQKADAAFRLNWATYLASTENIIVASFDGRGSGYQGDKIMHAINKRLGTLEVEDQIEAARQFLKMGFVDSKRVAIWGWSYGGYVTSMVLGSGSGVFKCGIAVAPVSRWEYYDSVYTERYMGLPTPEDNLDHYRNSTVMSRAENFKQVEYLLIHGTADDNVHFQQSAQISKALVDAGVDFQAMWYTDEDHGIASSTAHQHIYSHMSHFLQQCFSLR
Description: as §1

In the case of O=C(CNCCNc1ccccn1)N1CCCC1 [Ex. 2D, 1-[2-[(pyridin-2-yl)amino]ethylamino]acetylpyrrolidine], the IC50 [1] is reported as 6.4 µM, the IC50 [2] is reported as 9.4 µM and the IC50 [3] is reported as 22.9 µM. For the same compound, the melting point was 98 to 100 °C.
O=C(CNCCNc1ccc(Cl)cn1)N1CCCC1 [Ex. 1, 1-[2-[(5-chloropyridin-2-yl)amino]ethylamino]acetylpyrrolidine] gave an IC50 [1] of 5.5 µM, an IC50 [2] of 15.9 µM and an IC50 [3] of 9.3 µM.
Work on N#Cc1ccc(NCCNCC(=O)N2CCCC2)nc1 [Ex. 2A, 1-[2-[(5-cyanopyridin-2-yl)amino]ethylamino]acetylpyrrolidine] yielded an IC50 [1] of 2.6 µM, an IC50 [2] of 9.2 µM and an IC50 [3] of 4.4 µM. It also gave a melting point of 122 to 123 °C.
Work on O=C(CNCCNc1ncccn1)N1CCCC1 [Ex. 2B] yielded an IC50 [1] of 27.5 µM, an IC50 [2] of 45.8 µM and an IC50 [3] of 28.4 µM.
O=C(CNC1(CO)CCCC1)N1CCCC1 [Ex. 2C, 1-[(1-hydroxymethylcyclopent-1-yl)amino]acetylpyrrolidine] gave an IC50 [1] of 9.7 µM, an IC50 [2] of 15.2 µM and an IC50 [3] of 7.8 µM. The melting point was 72 to 74 °C.
